From US20080221110A1 (priority 2005, published 2008)

System: a strain of at least one of the organisms listed (panel of Gram-positive organisms and Gram-negative strains)
Experiment: organism not typed
Type: cell-based
Conditions: read-out: MIC (minimum inhibitory concentration)

O=c1ccc2ccc(F)c3c2n1CC3CN1CCC(NC[C@H]2COc3ccnnc3O2)CC1 (mixture of isomers) [Example 62, (1R/S)-1-[(4-{[(7S)-6,7-dihydro[1,4]dioxino[2,3-c]pyridazin-7-ylmethyl]amino}-1-piperidinyl)methyl]-9-fluoro-1,2-dihydro-4H-pyrrolo[3,2,1-ij]quinolin-4-one]
MIC: ≤ 4 mg/L
